Test system: scopolamine-treated rats
Test: Passive avoidance (PA) in scopolamine-treated rats
Type: in vivo, Sprague-Dawley rats
Description: Naive male Sprague-Dawley rats, three months old (obtained from Charles River Breeding, U.K.), were used (weighing 200-300 g.). The passive avoidance (PA) test is according to Fisher et al, Neurosci. Lett. 102: 325 (1989), except that in these rats amnesia was induced by scopolamine.
Eight groups of 17-20 naive rats were used. Each group was divided into two subgroups of 7-10 rats each: subgroup 1 was injected with scopolamine HBr (0.5 mg./kg. in saline, s.c., 15 min. before the shock) and subgroup 2 was injected with saline (1 ml./kg., s.c., 15 min. before the shock). Seven of the groups were treated within one minute after the shock with one of the following doses of the tested compound: 0.1, 0.5, 1, 3, 5, 8, 10 mg./kg. (in saline, i.p.) and one group received saline (1 ml./kg., i.p.).
Eight groups of 18-20 naive rats each were used. Each group was divided into two subgroups of 9-10 rats each: subgroup 1 was injected with scopolamine HBr (0.5 mg./kg. in saline, s.c., 15 min. before the shock) and subgroup 2 was injected with saline (1 ml./kg., s.c., 15 min. before the shock). Seven of the groups were treated, within one minute after the shock, with one of the following doses of AF125(N): 0.1, 0.5, 1, 3, 5, 8 or 10 mg./kg. (in saline, i.p.) and one group received saline (1 ml./kg., i.p.).

[1] = post-shock AF125 0.1 mg/kg i.p., pre-shock Saline
[2] = post-shock AF125 0.1 mg/kg i.p., pre-shock Scopolamine
[3] = post-shock AF125 0.5 mg/kg i.p., pre-shock Saline
[4] = post-shock AF125 0.5 mg/kg i.p., pre-shock Scopolamine
[5] = post-shock AF125 1.0 mg/kg i.p., pre-shock Saline
[6] = post-shock AF125 1.0 mg/kg i.p., pre-shock Scopolamine
[7] = post-shock AF125 3.0 mg/kg i.p., pre-shock Saline
[8] = post-shock AF125 3.0 mg/kg i.p., pre-shock Scopolamine
[9] = post-shock AF125 5.0 mg/kg i.p., pre-shock Saline
[10] = post-shock AF125 5.0 mg/kg i.p., pre-shock Scopolamine
[11] = post-shock AF125 8.0 mg/kg i.p., pre-shock Saline
[12] = post-shock AF125 8.0 mg/kg i.p., pre-shock Scopolamine
[13] = post-shock AF125 10.0 mg/kg i.p., pre-shock Saline
[14] = post-shock AF125 10.0 mg/kg i.p., pre-shock Scopolamine

## CC1=NCC2(CN3CCC2CC3)O1 (racemic) [AF125, 2-Methyl-spiro(1,3 oxazoline-5,3')quinuclidine]
3 mg./kg. i.p., pre-shock saline treated rats
  side effects: slight diarrhea
5 mg./kg. i.p., pre-shock saline treated rats
  side effects: stronger diarrhea
8 and 10 mg./kg. i.p., pre-shock saline treated rats
  side effects: severe diarrhea with lacrimation
[1]
  Initial latency, Mean: 49.5
  Retention latency, Mean: 572.8
[2]
  Initial latency, Mean: 33.6
  Retention latency, Mean: 128.8
[3]
  Initial latency, Mean: 42.0
  Retention latency, Mean: 600.0
[4]
  Initial latency, Mean: 47.4
  Retention latency, Mean: 222.7
[5]
  Initial latency, Mean: 36.0
  Retention latency, Mean: 555.8
[6]
  Initial latency, Mean: 23.3
  Retention latency, Mean: 261.2
[7]
  Initial latency, Mean: 51.9
  Retention latency, Mean: 530.4
[8]
  Initial latency, Mean: 47.3
  Retention latency, Mean: 296.0
[9]
  Initial latency, Mean: 34.7
  Retention latency, Mean: 426.7
[10]
  Initial latency, Mean: 51.3
  Retention latency, Mean: 227.3
[11]
  Initial latency, Mean: 41.2
  Retention latency, Mean: 594.1
[12]
  Initial latency, Mean: 53.9
  Retention latency, Mean: 294.9
[13]
  Initial latency, Mean: 46.3
  Retention latency, Mean: 498.3
[14]
  Initial latency, Mean: 45.9
  Retention latency, Mean: 288.3
pre-shock scopolamine treated rats
  side effects: did not exhibit any side effects

Reference: patent EP0452101B1, “Spiro bridged and unbridged heterocyclic compounds” (ISRAEL INSTITUTE FOR BIOLOGICAL RESEARCH, priority 1990, dated 1991)
